In patent publication US8012983B2, “Substituted triazolopyrazines useful for the treatment of degenerative and inflammatory diseases” (Galapagos NV, priority 2008, dated 2011):

The compounds below were run on MMP13 expression in SW1353 chondrosarcoma cell line (assay: MMP13 assay: IL-1/OSM-driven MMP13 expression in SW1353 cells (MMP13 ELISA)). Details: Homo sapiens, IL-1β and OSM, 48 hr.
Assay type: cell-based
Procedure: The protocol of the MMP13 ELISA is described in section 4.1, then testing of compounds on release of IL-1/OSM-driven MMP13 expression in SW1353 chondrosarcoma cell line is described in section 4.2.
A 384 well format ELISA for measurement of MMP13 was developed. Various primary antibodies were tested, as well as various ELISA protocols. The following protocol is developed and validated to measure MMP13 levels in supernatant of cell cultures in 384 well plates.
Black maxisorb 384 well plates (Nunc 460518) are coated with 35 μl of a buffered solution containing 1.5 μg/mL anti-MMP13 antibody MAB511 (R&D systems). The antibody is diluted in carbonate-bicarbonate coating buffer (1.59 g Na2CO3 (Sigma S-7795) and 2.93 g NaHCO3 (Sigma S-5761) in 1 L MilliQ water, adjusted to pH 9.6). After overnight incubation at 4° C., wells are washed twice with 100 μL PBST (80 g NaCl, 2 g KCl (Sigma), 11.5 g Na2HPO4.7H2O and 2 g KH2PO4 in 10 L milliQ water; pH 7.4+0.05% Tween-20 (Sigma)) and blocked with 100 μL/well blocking buffer (5% non fat dry milk in PBS). After overnight incubation at 4° C., wells are washed twice with 100 μL PBST. The PBST is removed and 35 μL of sample is transferred to the ELISA plates. After 4 hr incubation at RT, plates are washed twice with PBST and incubated for 1 hr at 37° C. with 35 μL/well 1.5 mM APMA solution (a 10 mM APMA stock solution is prepared one day before (35.18 mg APMA (Sigma A-9563) in 10 mL 0.1M NaOH (Merck 1.06469.1000) and stored at 4° C. Before use, the 10 mM APMA stock solution is diluted to 1.5 mM in 1×APMA buffer (10× APMA buffer: 500 mM Tris (Roche 708976), 50 mM CaCl2 (Sigma C-5080), […] ZnCl2 (Sigma Z-0173), 1.5 M NaCl (Calbiochem 567441), 0.5% Brij35 (Sigma 430 AG-6) and adjust to pH 7.0). After activation of MMP13 by APMA, plates are washed again two times with 100 μL PBST/well and 35 μL of substrate solution is added to each well. Substrate solution is prepared as follows: OmniMMP Fluorescent substrate (Biomol P-126) stock solution (2 mM in DMSO, stored at −20° C.) is diluted in 1× OmniMMP buffer (10× OmniMMP buffer: 500 mM Hepes (Sigma H4034), 100 mM CaCl2 (Sigma C5080), 0.5% Brij35 (Sigma 430 AG-6; adjusted to pH 7.0) to a final concentration of 0.01 mM. After an overnight incubation at 37° C., the active MMP13 in the sample has cleaved the substrate and released fluorescence. Readout is performed on the EnVision (Perkin Elmer) using 320 nm excitation/405 nm emission filters.
Human chondrosarcoma cell line SW1353 was acquired from ATCC and grown in DMEM supplemented with 10% heat-inactivated FBS and 1× penicillin/streptomycin (Invitrogen) in a humidified 5% CO2 incubator at 37° C. Aliquots of the cells were frozen and cryopreserved in liquid nitrogen. Starting from a cryopreserved aliquot, cells are further grown by sub-culturing at a 1/5-1/8 ratio twice a week by trypsinisation.
Starting from the compound master stocks (all at 10 mM concentration in 100% DMSO) a 3-fold serial dilution is made in 96-well plates in 100% DMSO. Then, plates are futher diluted 50-fold in M199 medium supplemented with 1% heat-inactivated FBS to obtain an intermediate work stock.
At day 1, SW1353 cells are seeded in 96-well plates (flat bottom, tissue culture treated, Greiner) at a density of 15000 cells/well in 120 μL growth medium. The next day, 15 μL compound out of the intermediate work stock is added. After an incubation period of 60 minutes, which allows the compounds to equilibrate and enter the cells, cells are stimulated with a mixture of IL-1β and OSM, added in a volume of 15 μL to obtain final concentrations of 1 ng/ml IL-1β and 25 ng/ml OSM. For that, stocks of IL-1 (10 μg/ml) and OSM (25 μg/ml) (both PeproTech) were diluted to 10 ng/ml and 250 ng/ml respectively, in M199 medium supplemented with 1% FBS. After incubation for 48 hr, the cell supernatant was harvested and an appropriate dilution was processed in the MMP13 ELISA as described above, delivering raw data (RFU: relative fluorescence units). […]

`CC(C)N1C[C@@H]2C[C@H]1CN2c1ccc(Nc2ncc(-c3ccc4c(c3)CNC4=O)n3ncnc23)cc1` [Compound 1, 5-{8-[4-((1S,4S)-5-Isopropyl-2,5-diaza-bicyclo[2.2.1]hept-2-yl)-phenylamino]-[1,2,4]triazolo[1,5-a]pyrazin-5-yl}-2,3-dihydro-isoindol-1-one] and `CC(C)(C)N1C[C@@H]2C[C@H]1CN2c1ccc(Nc2ncc(-c3ccc4c(c3)CNC4=O)n3ncnc23)cc1` [Compound 16, 5-{8-(4-((1S,4S)-5-tert-butyl-2,5-diazabicyclo[2.2.1]heptan-2-yl)phenylamino)-[1,2,4]triazolo-[1,5-a]pyrazin-5-yl}-2,3-dihydro-isoindol-1-one] cannot be ordered by IC50: over 1000 nM for the first, over 1000 nM for the second.

Compared with `CC(C)N1C[C@@H]2C[C@H]1CN2c1ccc(Nc2ncc(-c3coc(C(N)=O)c3)n3ncnc23)cc1` [Compound 2, 4-{8-[4-((1S,4S)-5-Isopropyl-2,5-diaza-bicyclo[2.2.1]hept-2-yl)-phenylamino]-[1,2,4]triazolo[1,5-a]pyrazin-5-yl}-furan-2-carboxamide], `CC(C)N1CC2CCC1CN2c1ccc(Nc2ncc(-c3coc(C(N)=O)c3)n3ncnc23)cc1` (centres unmarked) [Compound 9, 4-{8-(4-(5-isopropyl-2,5-diazabicyclo[2.2.2]octan-2-yl)phenylamino)[1,2,4]-triazolo[1,5-a]pyrazin-5-yl}-furan-2-carboxamide] is higher in IC50: 1 to 500 nM for the first, over 1000 nM for the second. The first is the more potent here.

Compared with `CC(C)(C)N1C[C@@H]2C[C@H]1CN2c1ccc(Nc2ncc(-c3coc(C(N)=O)c3)n3ncnc23)cc1` [Compound 3, 4-{8-[4-((1S,4S)-5-tert-Butyl-2,5-diaza-bicyclo[2.2.1]hept-2-yl)-phenylamino]-[1,2,4]triazolo[1,5-a]pyrazin-5-yl}-furan-2-carboxamide], `CC(C)(C)N1C[C@@H]2C[C@H]1CN2c1ccc(Nc2ncc(-c3coc(C(N)=O)c3)n3ccnc23)cc1` [Compound 6] is higher in IC50: 1 to 500 nM for the first, over 1000 nM for the second.

Compared with `CC(C)N1C[C@@H]2C[C@H]1CN2c1ccc(Nc2ncc(-c3coc(C(N)=O)c3)n3ccnc23)cc1` [Compound 4, 4-{8-[4-((1S,4S)-5-Isopropyl-2,5-diaza-bicyclo[2.2.1]hept-2-yl)-phenylamino]-imidazo[1,2-a]pyrazin-5-yl}-furan-2-carboxamide], `CC(C)N1C[C@@H]2C[C@H]1CN2c1ccc(Nc2ncc(-c3cc[nH]c(=O)c3)n3ccnc23)cc1` [Compound 8, 4-{8-(4-((1S,4S)-5-isopropyl-2,5-diazabicyclo[2.2.1]heptan-2-yl)phenyl-amino)imidazo[1,2-a]pyrazin-5-yl}-1H-pyridin-2-one] is lower in IC50: over 1000 nM for the first, 1 to 500 nM for the second. The second is the more potent here.

`CC(C)N1C[C@@H]2C[C@H]1CN2c1ccc(Nc2ncc(-c3cc(C(N)=O)n[nH]3)n3ncnc23)cc1` [Compound 5, 5-{8-(4-((1S,4S)-5-isopropyl-2,5-diazabicyclo[2.2.1]heptan-2-yl)phenyl-amino)-[1,2,4]triazolo[1,5-a]pyrazin-5-yl}-1H-pyrazole-3-carboxamide] and `CCOC(=O)c1cc(-c2cnc(Nc3ccc(N4C[C@@H]5C[C@H]4CN5C(C)C)cc3)c3ncnn23)[nH]n1` [Compound 21, Ethyl 5-(8-(4-((1S,4S)-5-isopropyl-2,5-diazabicyclo[2.2.1]heptan-2-yl)phenylamino)-[1,2,4]triazolo[1,5-a]pyrazin-5-yl)-1H-pyrazole-3-carboxylate] cannot be ordered by IC50: over 1000 nM for the first, over 1000 nM for the second.

`CC(C)N1CC2CCC(C1)N2c1ccc(Nc2ncc(-c3coc(C(N)=O)c3)n3ccnc23)cc1` [Compound 11, 4-{8-(4-(3-isopropyl-3,8-diazabicyclo[3.2.1]octan-8-yl)phenylamino)-imidazo[1,2-a]pyrazin-5-yl}-furan-2-carboxamide] and `CC(C)N1C2CCC1CN(c1ccc(Nc3ncc(-c4coc(C(N)=O)c4)n4ncnc34)cc1)C2` [Compound 12, 4-{8-(4-(8-isopropyl-3,8-diazabicyclo[3.2.1]octan-3-yl)phenylamino)[1,2,4]-triazolo[1,5-a]pyrazin-5-yl}-furan-2-carboxamide] cannot be ordered by IC50: over 1000 nM for the first, over 1000 nM for the second.

`CC(C)N1C[C@@H]2C[C@H]1CN2c1ccc(Nc2ncc(-c3cc(C(N)=O)n[nH]3)n3ncnc23)cn1` [Compound 15, 5-{8-(6-((1S,4S)-5-isopropyl-2,5-diazabicyclo[2.2.1]heptan-2-yl)pyridin-3-ylamino)-[1,2,4]triazolo[1,5-a]pyrazin-5-yl}-1H-pyrazole-3-carboxylic acid amide] and `CC(C)N1C[C@@H]2C[C@H]1CN2c1ccc(Nc2ncc(-c3ccc4c(c3)CNC4=O)n3ncnc23)cn1` [Compound 18, 5-{8-(6-((1S,4S)-5-isopropyl-2,5-diazabicyclo[2.2.1]heptan-2-yl)pyridin-3-ylamino)-[1,2,4]triazolo[1,5-a]pyrazin-5-yl}-2,3-dihydro-isoindol-1-one] cannot be ordered by IC50: over 1000 nM for the first, over 1000 nM for the second.

First: CC(C)(C)N1C[C@@H]2C[C@H]1CN2c1ccc(Nc2ncc(-c3cc(C(N)=O)n[nH]3)n3ncnc23)cc1 [Compound 17, 5-{8-(4-((1S,4S)-5-tert-butyl-2,5-diazabicyclo[2.2.1]heptan-2-yl)phenyl-amino)-[1,2,4]triazolo[1,5-a]pyrazin-5-yl}-1H-pyrazole-3-carboxylic acid amide]
Second: CC(C)N1C[C@@H]2C[C@H]1CN2c1ccc(Nc2ncc(-c3noc(C(N)=O)n3)n3ncnc23)cc1 [Compound 23, 3-(8-(4-((1S,4S)-5-isopropyl-2,5-diazabicyclo[2.2.1]heptan-2-yl)phenylamino)-[1,2,4]triazolo[1,5-a]pyrazin-5-yl)-1,2,4-oxadiazole-5-carboxamide]
The IC50 of the first is lower: 501 to 1000 nM for the first, over 1000 nM for the second. The first is the more potent here.

`CCOc1cc(-c2cnc(Nc3ccc(N4C[C@@H]5C[C@H]4CN5C(C)C)cc3)c3ncnn23)ccn1` [Compound 19, 5-(2-ethoxypyridin-4-yl)-N-(4-((1S,4S)-5-isopropyl-2,5-diazabicyclo[2.2.1]heptan-2-yl)phenyl)-[1,2,4]triazolo[1,5-a]pyrazin-8-amine] and `CCOc1cc(-c2cnc(Nc3ccc(N4C[C@@H]5C[C@H]4CN5C(C)C)cc3)c3nccn23)ccn1` [Compound 22, 5-(2-ethoxypyridin-4-yl)-N-(4-((1S,4S)-5-isopropyl-2,5-diazabicyclo[2.2.1]heptan-2-yl)phenyl)imidazo[1,2-a]pyrazin-8-amine] cannot be ordered by IC50: over 1000 nM for the first, over 1000 nM for the second.

`CC(C)N1C[C@@H]2C[C@H]1CN2c1ccc(Nc2ncc(-c3cc[nH]c(=O)c3)n3ncnc23)cc1` [Compound 20, 4-(8-(4-((1S,4S)-5-isopropyl-2,5-diazabicyclo[2.2.1]heptan-2-yl)phenylamino)-[1,2,4]triazolo[1,5-a]pyrazin-5-yl)pyridin-2(1H)-one] and `CC(C)N1C[C@@H]2C[C@H]1CN2c1cccc(Nc2ncc(-c3coc(C(N)=O)c3)n3ncnc23)c1` [Compound 24, 4-(8-(3-((1S,4S)-5-isopropyl-2,5-diazabicyclo[2.2.1]heptan-2-yl)phenylamino)-[1,2,4]triazolo[1,5-a]pyrazin-5-yl)furan-2-carboxamide] cannot be ordered by IC50: over 1000 nM for the first, over 1000 nM for the second.
